Literature values as cited in patent US7906537B2, “Substituted p-diaminobenzene derivatives” (priority 2003, dated 2011).

Assays:
[1] = test system: animal models of neuropathic pain; conditions: in vivo
[2] = test system: animal models of anxiety-like behaviour; conditions: in vivo
hippocampal kindling = conditions: rat
[3] = test system: kainic acid-induced status epilepticus; conditions: following kainic acid-induced status epilepticus in the rat
[4] = test system: electrically induced seizures, seizures induced chemically by pentylenetetrazole, picrotoxin and NMDA, DBA/2 mouse; conditions: after oral and intraperitoneal administration in rats and mice
epileptic patients = conditions: clinical trials
amygdala kindling model = conditions: in vivo
[5] = test system: K(+) current in neuronal cells
[6] = test system: animal models of ethanol withdrawal syndrome; conditions: in vivo

Row | SMILES | effect in animal models of neuropathic pain [1] | activity in animal models of anxiety-like behaviour [2] | progression of hippocampal kindling (hippocampal kindling) | limbic neurodegeneration and expression of markers of apoptosis [3] | activity in a range of anticonvulsant tests [4] | incidence of seizures in epileptic patients (epileptic patients) | activity in the amygdala kindling model of complex partial seizures (amygdala kindling model) | activation of K(+) current [5] | effect in animal models of ethanol withdrawal syndrome [6]
1 | CCOC(=O)Nc1ccc(NCc2ccc(F)cc2)cc1N [Retigabine, N-(2-amino-4-(4-fluorobenzylamino)-phenyl)carbamic acid ethyl ester] | beneficial | active | delay the progression of hippocampal kindling | prevent limbic neurodegeneration and the expression of markers of apoptosis | active | effectiveness in reducing the incidence of seizures | active | activate a K(+) current | 
2 | NCC1(CC(=O)O)CCCCC1 [gabapentin] |  |  |  |  |  |  |  |  | very effective
